As a reminder, the Kd is the free concentration of one partner at which half of the binding sites on the other are occupied at equilibrium, for simple one-to-one binding. Read a high Kd as weaker binding.

The target of experiment [1] is T1, S-layer protein SpaA (SpaASLH) (Paenibacillus alvei, UniProt C1JZ07).
T1 construct: SLH domain trimer, amino acids 21–193, Ser-Gly-Ser linker and C-terminal His6-tag
T1 sequence (C1JZ07 21-193): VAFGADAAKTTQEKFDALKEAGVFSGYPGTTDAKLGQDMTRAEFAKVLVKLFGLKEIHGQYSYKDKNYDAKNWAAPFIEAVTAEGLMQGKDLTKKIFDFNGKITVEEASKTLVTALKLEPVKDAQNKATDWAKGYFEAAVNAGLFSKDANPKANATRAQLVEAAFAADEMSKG
The experiment in a line: co-crystal structure (no binding detected by ITC).

Experiment [2] has as its target T2, S-layer protein SpaA (SpaASLH/G109A) (Paenibacillus alvei, UniProt C1JZ07, G109A).
T2 construct: SLH domain trimer, amino acids 21–193, Ser-Gly-Ser linker and C-terminal His6-tag
The experiment in a line: ITC and co-crystal structure. The experiment is classed as binding.

The target of experiment [3] is T1, S-layer protein SpaA (SpaASLH). The experiment in a line: ITC and co-crystal structures. It counts as binding.
The target of experiment [4] is T3, S-layer protein SpaA (SpaASLH/G46A/G109A) (Paenibacillus alvei, UniProt C1JZ07, G46A/G109A).
T3 construct: SLH domain trimer, amino acids 21–193, Ser-Gly-Ser linker and C-terminal His6-tag
T3 sequence (C1JZ07 21-193 G46A/G109A): T1 sequence (C1JZ07 21-193)
Briefly: co-crystal structure (no binding detected by ITC).

Each structure is given as a SMILES string.

For `CO[C@@H]1O[C@@H]2CO[C@](C)(C(=O)O)O[C@H]2[C@H](O[C@@H]2O[C@H](CO)[C@@H](O)[C@H](O)[C@H]2NC(C)=O)[C@@H]1NC(C)=O` [disaccharide, β-D-GlcNAc-(1 → 3)-4,6-Pyr-β-D-ManNAcOMe], the “co-crystal structure (no binding detected by ITC)” value in experiment [1] is “Despite the lack of binding measured by ITC, a co-crystal structure with the internal disaccharide was obtained”.

Turning to `CO[C@@H]1O[C@@H]2CO[C@](C)(C(=O)O)O[C@H]2[C@H](O)[C@@H]1NC(C)=O` [monosaccharide (M), 4,6-Pyr-β-D-ManNAcOMe], the equilibrium dissociation constant (Kd) came to 226 nM in experiment [2] and 29 nM in experiment [3]. Further, the “co-crystal structure (no binding detected by ITC)” value in experiment [4] is on record as “Despite the lack of binding detected by ITC, ligand is again observed bound in the G2 pocket”.

The record behind these values is publication PMC6081394, “Structural basis of cell wall anchoring by SLH domains in Paenibacillus alvei” (Nature Communications, 2018).
